Assays:
[1] = target: T1, P450 1A2 (Homo sapiens, UniProt P05177); test: Inhibition of P450 1A2-dependent EROD activity; assay type: biochemical
T1 sequence (P05177 1-516): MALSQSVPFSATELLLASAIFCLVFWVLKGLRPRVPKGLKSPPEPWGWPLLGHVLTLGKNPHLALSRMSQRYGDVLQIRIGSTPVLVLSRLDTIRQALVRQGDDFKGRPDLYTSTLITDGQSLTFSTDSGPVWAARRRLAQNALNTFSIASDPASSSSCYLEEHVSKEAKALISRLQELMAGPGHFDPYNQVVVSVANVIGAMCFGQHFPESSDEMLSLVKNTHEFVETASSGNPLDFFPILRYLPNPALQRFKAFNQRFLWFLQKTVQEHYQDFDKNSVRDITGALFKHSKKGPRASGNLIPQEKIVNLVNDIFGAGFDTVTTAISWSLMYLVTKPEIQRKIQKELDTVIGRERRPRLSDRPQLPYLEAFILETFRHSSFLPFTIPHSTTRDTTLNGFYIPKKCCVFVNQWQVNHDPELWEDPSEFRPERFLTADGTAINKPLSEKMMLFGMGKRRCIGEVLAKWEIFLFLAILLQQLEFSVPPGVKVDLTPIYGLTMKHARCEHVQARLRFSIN

[2] = target: T2, P450 1B1 (Homo sapiens, UniProt Q16678); test: Inhibition of P450 1B1-dependent EROD activity; assay type: biochemical
T2 sequence (Q16678 1-543): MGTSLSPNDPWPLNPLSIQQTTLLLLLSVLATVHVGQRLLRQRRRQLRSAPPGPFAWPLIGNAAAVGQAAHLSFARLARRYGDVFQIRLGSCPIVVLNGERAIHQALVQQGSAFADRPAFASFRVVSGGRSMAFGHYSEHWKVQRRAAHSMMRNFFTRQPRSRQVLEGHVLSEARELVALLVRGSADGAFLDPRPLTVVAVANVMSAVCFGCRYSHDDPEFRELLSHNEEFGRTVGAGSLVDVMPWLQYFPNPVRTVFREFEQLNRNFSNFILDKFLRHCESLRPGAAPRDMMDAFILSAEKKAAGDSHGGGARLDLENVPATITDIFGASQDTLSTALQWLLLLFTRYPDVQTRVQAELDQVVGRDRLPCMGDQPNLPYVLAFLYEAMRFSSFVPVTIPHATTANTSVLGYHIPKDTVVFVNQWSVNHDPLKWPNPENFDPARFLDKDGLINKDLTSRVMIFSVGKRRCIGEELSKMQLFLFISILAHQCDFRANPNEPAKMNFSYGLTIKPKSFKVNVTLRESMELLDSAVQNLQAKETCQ

[3] = target: T3, P450 2A6 (Homo sapiens, UniProt P11509); test: Inhibition of P450 2A6-dependent coumarin 7-hydroxylation; assay type: biochemical
T3 sequence (P11509 1-494): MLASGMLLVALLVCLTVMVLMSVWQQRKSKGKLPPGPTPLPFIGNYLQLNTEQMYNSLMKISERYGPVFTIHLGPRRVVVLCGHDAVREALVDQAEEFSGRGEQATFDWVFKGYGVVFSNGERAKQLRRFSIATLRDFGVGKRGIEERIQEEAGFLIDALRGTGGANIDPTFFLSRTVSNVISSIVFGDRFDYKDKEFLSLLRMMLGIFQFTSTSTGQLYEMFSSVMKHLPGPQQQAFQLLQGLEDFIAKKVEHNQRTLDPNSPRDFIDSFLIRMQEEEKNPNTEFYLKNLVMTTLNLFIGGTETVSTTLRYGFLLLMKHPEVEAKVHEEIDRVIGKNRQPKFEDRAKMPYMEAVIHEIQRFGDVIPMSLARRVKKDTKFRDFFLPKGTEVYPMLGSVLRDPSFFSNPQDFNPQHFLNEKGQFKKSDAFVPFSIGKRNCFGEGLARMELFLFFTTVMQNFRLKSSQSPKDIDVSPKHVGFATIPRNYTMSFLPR

[4] = target: T2, P450 1B1; test: Spectral binding titration with purified recombinant P450 1B1; conditions: for ΔAmax/Ks / ΔAmax: Reverse Type I binding, 1 µM P450; for ΔAmax: means ± SE
[5] = target: T1, P450 1A2; test: Spectral binding titration with purified recombinant P450 1A2; conditions: for ΔAmax/Ks / ΔAmax: Reverse Type I binding, 1 µM P450; for ΔAmax: means ± SE
[6] = target: T4, P450 1A1 (Homo sapiens, UniProt P04798); test: Spectral binding titration with purified recombinant P450 1A1; conditions: for ΔAmax/Ks / ΔAmax: Reverse Type I binding, 1 µM P450; for ΔAmax: means ± SE
T4 sequence (P04798 1-512): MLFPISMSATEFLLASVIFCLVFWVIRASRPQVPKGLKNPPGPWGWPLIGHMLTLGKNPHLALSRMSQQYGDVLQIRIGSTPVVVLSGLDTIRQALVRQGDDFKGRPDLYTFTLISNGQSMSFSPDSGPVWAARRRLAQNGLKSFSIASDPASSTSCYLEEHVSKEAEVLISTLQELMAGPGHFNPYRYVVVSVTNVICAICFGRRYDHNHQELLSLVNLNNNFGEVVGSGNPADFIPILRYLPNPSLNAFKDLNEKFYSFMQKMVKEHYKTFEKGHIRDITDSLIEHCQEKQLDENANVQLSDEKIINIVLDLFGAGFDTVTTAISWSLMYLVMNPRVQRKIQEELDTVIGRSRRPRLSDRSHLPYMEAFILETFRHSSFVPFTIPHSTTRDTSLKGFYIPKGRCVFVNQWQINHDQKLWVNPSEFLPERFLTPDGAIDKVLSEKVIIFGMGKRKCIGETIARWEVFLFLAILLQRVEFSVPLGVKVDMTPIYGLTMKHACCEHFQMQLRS

[7] = target: T5, P450 2A13 (Homo sapiens, UniProt Q16696); test: Spectral binding titration with purified recombinant P450 2A13; conditions: for ΔAmax/Ks / ΔAmax: Type I binding, 1 µM P450; for ΔAmax: means ± SE
T5 sequence (Q16696 1-494): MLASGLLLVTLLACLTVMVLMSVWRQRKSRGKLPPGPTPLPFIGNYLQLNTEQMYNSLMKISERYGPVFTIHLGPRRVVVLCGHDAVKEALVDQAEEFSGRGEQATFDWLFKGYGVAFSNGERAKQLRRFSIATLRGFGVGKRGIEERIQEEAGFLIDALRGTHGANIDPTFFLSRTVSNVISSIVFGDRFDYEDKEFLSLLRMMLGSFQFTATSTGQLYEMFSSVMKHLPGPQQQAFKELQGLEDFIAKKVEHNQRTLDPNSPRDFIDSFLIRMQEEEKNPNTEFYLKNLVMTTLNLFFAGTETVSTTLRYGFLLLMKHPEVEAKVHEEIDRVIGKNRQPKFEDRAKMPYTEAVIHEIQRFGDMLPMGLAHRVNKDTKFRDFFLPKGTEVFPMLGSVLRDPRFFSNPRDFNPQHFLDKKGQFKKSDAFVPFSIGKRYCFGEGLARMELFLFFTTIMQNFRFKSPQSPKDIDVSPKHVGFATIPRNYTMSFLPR

[8] = target: T3, P450 2A6; test: Spectral binding titration with purified recombinant P450 2A6; conditions: for ΔAmax/Ks / ΔAmax: Type I binding, 1 µM P450; for ΔAmax: means ± SE
[9] = target: T5, P450 2A13; test: Inhibition of P450 2A13-dependent coumarin 7-hydroxylation; assay type: biochemical
[10] = target: T4, P450 1A1; test: Inhibition of P450 1A1-dependent EROD activity; assay type: biochemical
[11] = rats; cited from earlier work

Row | SMILES | IC50 [1] [nM] | IC50 [2] [nM] | IC50 [3] [nM] | Kd [4] [nM] | ΔAmax/Ks [4] | ΔAmax [4] | ΔAmax/Ks [5] | ΔAmax [5] | Kd [6] [nM] | ΔAmax/Ks [6] | ΔAmax [6] | Kd [7] [nM] | ΔAmax/Ks [7] | ΔAmax [7] | Kd [8] [nM] | ΔAmax/Ks [8] | ΔAmax [8] | IC50 [9] [nM] | IC50 [10] [nM] | also measured
1 | N#C[Se]Cc1ccccc1C[Se]C#N [o-XSC, 1,2-phenylenebis(methylene)selenocyanate] | 390 ± 42 | 140 ± 27 | 2700 ± 340 | 4600 ± 750 | 3.30 × 10^−3 | 15 ± 0.51 × 10^−3 | 0.38 × 10^−3 | 2.4 ± 0.20 × 10^−3 | 26000 ± 4600 | 0.77 × 10^−3 | 20 ± 1.2 × 10^−3 | 750 ± 44 | 92.00 × 10^−3 | 69 ± 0.49 × 10^−3 | 5100 ± 450 | 7.80 × 10^−3 | 40 ± 0.82 × 10^−3 | 1200 ± 130 | 110 ± 21 | 
2 | N#C[Se]Cc1ccc(C[Se]C#N)cc1 [p-XSC, 1,4-phenylenebis(methylene)selenocyanate] | 630 ± 59 | 160 ± 9 | 6200 ± 550 | 3600 ± 330 | 5.83 × 10^−3 | 21 ± 0.48 × 10^−3 | 0.81 × 10^−3 | 9.7 ± 0.40 × 10^−3 | 19000 ± 1600 | 0.45 × 10^−3 | 8.6 ± 0.24 × 10^−3 | 1500 ± 280 | 46.00 × 10^−3 | 69 ± 2.6 × 10^−3 | 14000 ± 1900 | 2.20 × 10^−3 | 31 ± 1.2 × 10^−3 | 1400 ± 210 | 260 ± 31 | Kd [5]: 12000 ± 1200 nM
3 | N#C[Se]Cc1ccc(C[Se]C#N)cc1 [p-[^14C]XSC, 1,4-[^14C]phenylenebis(methylene)selenocyanate] |  |  |  |  |  |  |  |  |  |  |  |  |  |  |  |  |  |  |  | cumulative percentage of radioactivity excreted in feces [11]: 75%; cumulative percentage of radioactivity excreted in urine [11]: 24%

From publication PMC3156385 (Chemical research in toxicology, 2011)
